Source: patent US20100004285A1, “POLYMORPH OF 4-[2-[4-[1-(2-ETHOXYETHYL)-1H-BENZIMIDAZOLE-2-YL]-1-PIPERIDINYL]ETHYL]-alpha alpha-DIMETHYL-BENZENEACETIC ACID” (FAES FARMA, S.A., priority 2002, published 2010)
“Also recorded” adds a separate entry of the source.

Experiments:
[1] = stability of the crystalline polymorphic forms of bilastine; format: physicochemical
[2] = test system: cutaneous capillary permeability induced by histamine; assay: antagonism against cutaneous capillary permeability induced by histamine in the rat; format: in vivo
[3] = test system: histamine-induced lethality; assay: preventing histamine-induced lethality in the guinea-pig; format: in vivo

Row | Compound | stability of the crystalline form [1] | antihistaminic properties: cutaneous capillary permeability induced by histamine [2] | antihistaminic properties: histamine-induced lethality [3] | transformation into the other polymorphs [1] | stability of the polymorph at room temperature ([1]; room temperature) | stability when stored at temperatures above room temperature ([1]; stored at temperatures above room temperature)
1 | CCOCCn1c(C2CCN(CCc3ccc(C(C)(C)C(=O)O)cc3)CC2)nc2ccccc21 [crystalline form 2, 4-[2-[4-[1-(2-ethoxyethyl)-1H benzimidazole-2-yl]-1-piperidinyl]ethyl]-αα-dimethyl-benzeneacetic acid] | stable |  |  |  |  | 
2 | CCOCCn1c(C2CCN(CCc3ccc(C(C)(C)C(=O)O)cc3)CC2)nc2ccccc21 [crystalline form 3, 4-[2-[4-[1-(2-ethoxyethyl)-1H benzimidazole-2-yl]-1-piperidinyl]ethyl]-αα-dimethyl-benzeneacetic acid] | not very stable; also recorded: the most unstable |  |  |  |  | 
3 | CCOCCn1c(C2CCN(CCc3ccc(C(C)(C)C(=O)O)cc3)CC2)nc2ccccc21 [crystalline form 1, 4-[2-[4-[1-(2-ethoxyethyl)-1H benzimidazole-2-yl]-1-piperidinyl]ethyl]-αα-dimethyl-benzeneacetic acid] | stable; also recorded: very stable | antagonism against cutaneous capillary permeability induced by histamine | preventing histamine-induced lethality | not transformed into any of the other polymorphs 2 and 3 | very stable | stable
